Data reported in ChEMBL document CHEMBL1201862, “PubChem BioAssay data set” (2004).
Activity calls are given as the source filed them.

Columns and labels:
[1] = target: T1, Polyadenylate-binding protein 1 (Homo sapiens, UniProt P11940); experiment: PABP1 MLLE–PAM2 binding inhibitor potency, dose response, biochemical, fluorescence polarization, FITC-PAM2 peptide (AID 602259); type: functional; settings: read-out: IC50_Mean
[2] = target: T1, Polyadenylate-binding protein 1; experiment: PABP1 MLLE–PAM2 interaction inhibitors, dose response, miRNA deadenylation inhibitor project, biochemical, fluorescence polarization, Cy5-PAM2 peptide, secondary (AID 602260); type: functional; settings: read-out: IC50_Mean
Hexokinase HKDC1 = target: T2, Hexokinase HKDC1 (Homo sapiens, UniProt Q2TB90); experiment: HKDC1 hexokinase activators, dose response, biochemical, W721R variant (AID 504730); type: functional
T2 sequence (Q2TB90 whole entry): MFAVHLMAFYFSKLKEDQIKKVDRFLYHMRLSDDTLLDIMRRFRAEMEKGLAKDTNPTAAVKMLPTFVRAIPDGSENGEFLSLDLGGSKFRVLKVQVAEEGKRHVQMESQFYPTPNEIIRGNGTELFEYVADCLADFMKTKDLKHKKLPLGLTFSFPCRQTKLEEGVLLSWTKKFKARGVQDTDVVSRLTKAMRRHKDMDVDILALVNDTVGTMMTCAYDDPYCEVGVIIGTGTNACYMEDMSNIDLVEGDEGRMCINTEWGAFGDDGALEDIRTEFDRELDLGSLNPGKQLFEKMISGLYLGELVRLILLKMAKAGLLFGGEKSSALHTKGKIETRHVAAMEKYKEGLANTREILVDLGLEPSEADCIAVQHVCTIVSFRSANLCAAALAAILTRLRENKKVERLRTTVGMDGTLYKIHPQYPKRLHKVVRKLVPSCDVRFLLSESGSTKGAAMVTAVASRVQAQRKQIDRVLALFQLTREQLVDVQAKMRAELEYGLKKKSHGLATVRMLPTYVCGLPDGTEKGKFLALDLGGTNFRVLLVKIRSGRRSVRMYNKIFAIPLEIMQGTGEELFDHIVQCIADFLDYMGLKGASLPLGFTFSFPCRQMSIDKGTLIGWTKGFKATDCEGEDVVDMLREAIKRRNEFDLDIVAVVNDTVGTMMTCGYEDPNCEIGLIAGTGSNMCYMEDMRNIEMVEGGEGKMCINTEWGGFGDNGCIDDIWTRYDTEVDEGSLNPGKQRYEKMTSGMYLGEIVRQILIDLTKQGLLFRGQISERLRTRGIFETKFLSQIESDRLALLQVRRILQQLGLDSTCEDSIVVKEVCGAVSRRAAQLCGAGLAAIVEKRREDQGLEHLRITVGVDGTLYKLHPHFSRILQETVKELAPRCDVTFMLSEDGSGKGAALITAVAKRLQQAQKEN

[3] = target: DNA dC->dU-editing enzyme APOBEC-3G (Homo sapiens, UniProt Q9HC16); experiment: Dose Response confirmation of small molecule APOBEC3G DNA Deaminase Inhibitors via a fluorescence-based single-stranded DNA deaminase assay. [Related pubchem assays (depositor defined):AID493012, AID493028]; type: functional
[4] = target: Eukaryotic translation initiation factor 4E (Mus musculus, UniProt P63073); experiment: eIF4E–eIF4G protein interaction inhibitors, dose response, biochemical, TR-FRET (AID 855); type: functional;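 also: potency for disrupting eIF4E binding to eIF4GI seen as loss of FRET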
Hexokinase-1 = target: T3, Hexokinase-1 (Homo sapiens, UniProt P19367); experiment: hexokinase 1 activators, dose response, selectivity assay for HKDC1 activator project, biochemical (AID 504762); type: functional
T3 sequence (P19367 whole entry): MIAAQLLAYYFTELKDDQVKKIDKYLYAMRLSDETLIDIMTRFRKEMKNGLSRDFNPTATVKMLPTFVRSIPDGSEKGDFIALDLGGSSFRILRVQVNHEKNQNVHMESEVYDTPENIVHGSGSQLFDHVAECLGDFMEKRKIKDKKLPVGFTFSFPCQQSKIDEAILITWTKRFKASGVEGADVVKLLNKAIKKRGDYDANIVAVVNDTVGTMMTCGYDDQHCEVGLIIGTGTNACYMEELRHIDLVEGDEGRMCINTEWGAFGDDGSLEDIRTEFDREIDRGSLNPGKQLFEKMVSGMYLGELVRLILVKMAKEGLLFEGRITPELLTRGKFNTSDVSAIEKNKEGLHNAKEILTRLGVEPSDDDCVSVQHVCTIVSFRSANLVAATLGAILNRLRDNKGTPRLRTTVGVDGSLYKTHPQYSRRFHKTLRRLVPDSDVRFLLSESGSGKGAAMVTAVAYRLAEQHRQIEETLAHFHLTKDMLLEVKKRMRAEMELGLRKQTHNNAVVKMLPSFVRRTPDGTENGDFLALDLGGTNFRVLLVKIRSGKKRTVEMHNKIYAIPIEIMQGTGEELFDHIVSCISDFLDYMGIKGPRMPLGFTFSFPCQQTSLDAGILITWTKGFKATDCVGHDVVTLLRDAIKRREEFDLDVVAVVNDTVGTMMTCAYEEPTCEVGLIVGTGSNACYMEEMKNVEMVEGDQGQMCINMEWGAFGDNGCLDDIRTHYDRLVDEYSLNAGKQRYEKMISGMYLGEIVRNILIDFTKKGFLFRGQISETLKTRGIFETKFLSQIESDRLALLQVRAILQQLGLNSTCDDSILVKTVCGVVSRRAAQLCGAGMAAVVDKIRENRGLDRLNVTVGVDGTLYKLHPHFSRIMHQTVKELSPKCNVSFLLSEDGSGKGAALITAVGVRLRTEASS

[5] = target: T4, Aryl hydrocarbon receptor (Homo sapiens, UniProt P35869); experiment: Luminescence-based cell-based high throughput dose response assay for activators of the Aryl Hydrocarbon Receptor (AHR). [Related pubchem assays: 2796 (Primary screen (AHR activators in singlicate)), 2845 (Confirmation screen (AHR activators in triplicate)), 434939 (Counterscreen (PXR activators in triplicate)), 2804 (Summary (AHR activators))]; type: ADME
T4 sequence (P35869 whole entry): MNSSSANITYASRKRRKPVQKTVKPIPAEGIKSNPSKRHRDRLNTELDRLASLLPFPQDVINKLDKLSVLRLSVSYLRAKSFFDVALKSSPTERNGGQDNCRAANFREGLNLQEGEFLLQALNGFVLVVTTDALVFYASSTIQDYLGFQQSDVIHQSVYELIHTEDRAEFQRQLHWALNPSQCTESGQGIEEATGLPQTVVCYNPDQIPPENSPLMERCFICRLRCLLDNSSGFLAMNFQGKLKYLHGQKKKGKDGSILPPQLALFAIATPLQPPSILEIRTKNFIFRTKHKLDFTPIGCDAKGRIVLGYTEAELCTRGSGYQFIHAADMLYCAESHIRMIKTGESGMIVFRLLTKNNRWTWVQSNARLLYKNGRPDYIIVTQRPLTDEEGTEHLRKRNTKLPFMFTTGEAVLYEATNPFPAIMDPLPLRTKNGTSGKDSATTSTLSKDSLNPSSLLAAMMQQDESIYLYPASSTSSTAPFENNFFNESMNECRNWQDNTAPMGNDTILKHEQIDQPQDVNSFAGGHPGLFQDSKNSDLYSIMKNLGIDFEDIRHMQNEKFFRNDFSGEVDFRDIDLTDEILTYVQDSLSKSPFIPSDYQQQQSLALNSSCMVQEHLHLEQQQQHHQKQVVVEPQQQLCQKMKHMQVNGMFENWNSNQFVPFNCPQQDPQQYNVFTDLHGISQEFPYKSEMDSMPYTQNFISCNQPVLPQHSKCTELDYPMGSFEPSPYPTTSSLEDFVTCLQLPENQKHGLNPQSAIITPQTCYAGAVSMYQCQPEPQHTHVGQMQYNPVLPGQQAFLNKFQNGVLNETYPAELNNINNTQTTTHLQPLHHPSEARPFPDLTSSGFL

[6] = target: T5, DNA repair and recombination protein RAD54-like (Homo sapiens, UniProt Q92698); experiment: inhibitors of human RAD54 branch migration, confirmation, biochemical, fluorescence, cherry-picked samples, dose series (AID 651657); type: functional
T5 sequence (Q92698 whole entry): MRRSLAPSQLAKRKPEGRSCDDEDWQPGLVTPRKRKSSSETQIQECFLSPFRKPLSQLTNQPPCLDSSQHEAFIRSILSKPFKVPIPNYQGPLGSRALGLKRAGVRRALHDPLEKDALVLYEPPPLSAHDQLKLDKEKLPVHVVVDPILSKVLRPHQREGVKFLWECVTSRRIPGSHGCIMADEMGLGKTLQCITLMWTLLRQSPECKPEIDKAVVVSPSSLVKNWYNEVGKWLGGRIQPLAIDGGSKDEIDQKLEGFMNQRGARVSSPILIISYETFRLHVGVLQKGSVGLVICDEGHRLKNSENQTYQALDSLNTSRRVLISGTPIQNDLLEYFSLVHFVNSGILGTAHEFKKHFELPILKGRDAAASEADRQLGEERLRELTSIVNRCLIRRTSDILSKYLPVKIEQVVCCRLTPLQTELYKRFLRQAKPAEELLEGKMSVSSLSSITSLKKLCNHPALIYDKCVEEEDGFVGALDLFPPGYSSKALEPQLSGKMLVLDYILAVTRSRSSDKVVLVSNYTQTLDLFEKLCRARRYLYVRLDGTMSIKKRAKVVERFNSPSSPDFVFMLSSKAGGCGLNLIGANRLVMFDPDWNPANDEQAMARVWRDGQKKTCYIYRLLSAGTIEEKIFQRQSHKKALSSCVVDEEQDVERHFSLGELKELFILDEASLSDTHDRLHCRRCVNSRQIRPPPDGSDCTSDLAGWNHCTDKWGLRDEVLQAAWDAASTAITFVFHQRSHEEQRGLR

Troponin, cardiac muscle = Troponin, cardiac muscle (Homo sapiens, UniProt P19429+P45379+P63316); experiment: Fluorescence-based biochemical high throughput dose response assay for activators of the calcium sensitivity of cardiac Regulated Thin Filaments (RTF). [Related pubchem assays (depositor defined):AID493008, AID493018, AID504382, AID504383]; type: protein-complex assay
[7] = target: T6, Runt-related transcription factor 1/Core-binding factor subunit beta (Homo sapiens, UniProt Q01196+Q13951); experiment: inhibitors of RUNX1 Runt–CBFb-SMMHC binding, biochemical, TR-FRET (AID 1438); type: protein assay
[8] = target: T6, Runt-related transcription factor 1/Core-binding factor subunit beta; experiment: inhibitors of RUNX1 Runt–CBFb-SMMHC binding, primary screen, biochemical, FRET, Cerulean-Runt, Venus-CBFb-SMMHC, uHTS (AID 1434); type: protein assay;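 also: partner is the CBFb-SMMHC leukemia fusion protein rather than wild-type CBFb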

Row | Compound | IC50 [1] | IC50 [2] | EC50 (Hexokinase HKDC1) | IC50 [3] | IC50 [4] | EC50 (Hexokinase-1) | EC50 [5] | AC50 [6] | EC50 (Troponin, cardiac muscle) | IC50 [7] | IC50 [8]
1 | CCOC(=O)c1c(NC(=O)CSc2nnnn2-c2ccc(OC)cc2)sc(C)c1C | > 66 µM (inactive) | > 66 µM (inactive) | > 80 µM (inactive) | 54.7 µM (active) | > 64 µM (inactive) | 37.4 µM (inactive) |  |  |  |  | 
2 | CC(=O)Nc1ccc2cc3ccc(NC(C)=O)cc3nc2c1 |  |  |  |  |  |  | > 3.39 µM (active) | 86.2 µM (active) | 38.3 µM (inactive) | > 100 µM (inactive) | 14.1 µM (active)
